Data on 13 compounds can be found in patent US10501473B2, “Fused heterocyclic ring compounds and method of treating retinal disease using same” (THE INDUSTRY & ACADEMIC COOPERATION IN CHUNGNAM NATIONAL …, priority 2014, dated 2019).

SMILES strings stand for the structures. Some results are limits rather than exact numbers.

Assay [1] addresses RIPK1 (receptor-interacting serine/threonine-protein kinase 1) (Homo sapiens (Human), UniProt Q13546). In words: RIPK1 inhibitory activity, autophosphorylation of immuno-precipitated RIPK1 with [32P]γ-ATP. In kind it is biochemical. The conditions noted are these: for inhibition at 100 µM: Table 2, 100 μM; for activity at 100 µM: compound 100 μM, remaining RIPK1 phosphorylation. The method, then:
The following experiment was performed to evaluate RIPK1 (receptor-interacting serine/threonine-protein kinase 1) inhibitory activity of the compounds of examples of the invention.
RIPK1 enzyme immuno-precipitated in HEK293 (Human Embryonic Kidney 293) cell lysate was used as kinase. The experiment was performed according to the method described in Cell. 12; 137(6):1112-23(2009). RIPK1 protein was over-expressed in HEK293 cell line, to which lysis buffer (50 mM Tris-Cl [pH 8.0], 150 mM NaCl, 1 mM EDTA, 1% NP-40, 0.4 mM phenylmethylsulfonyl fluoride (PMSF)) was added for cell lysis. Centrifugation was performed at 13,000 rpm for 10 minutes to separate the supernatant. RIPK1 monoclonal antibody (610459, BD Bioscience) and A/G agarose beads (sc-2003, Santa Cruz Biotechnology) were added thereto, followed by immuno-precipitation in a 4° C. rotator for 12 hours.
The immune complex was washed with lysis buffer twice and then washed with kinase assay buffer (20 mM HEPES [pH7.6], 2 mM DTT, 1 mM NaF, 1 mM Na3Vo4, 20 mM β-glycerophosphate, 20 mM PNPP, 20 mM MgCl2, 20 mM MnCl2, 1 mM Benzamidie, and 1 mM EDTA) lastly. Kinase assay buffer and the compound were added to the RIPK1 immuno-precipitate, followed by reaction in a 24° C. constant-temperature water bath for 15 minutes. Additional reaction was induced for 30 minutes at 30° C. after 100 μM of ATP and 10 μCi[^32P] γ-ATP were added thereto. The reaction mixture was washed with kinase assay buffer once, to which protein loading buffer was added, followed by heating at 100° C. for 3 minutes. The reaction mixture was then loaded on 8% SDS-PAGE gel. Radioactive image of the phosphorylated RIPK1 was detected with FLA-7000 (GE healthcare). The image Quant TL program was used for the quantification.

For assay [2], the system named is RGC-5 (rat ganglion cell). In words: Retinal nerve protection under oxygen-glucose deprivation (OGD), LDH assay. In kind it is cell-based. The conditions noted are these: RGC-5, OGD 15 hours, compound 20 μM, DMSO control = 100%. On the procedure: The following experiment was performed to evaluate the protective effect of the compounds of examples of the invention on the retinal nerve under oxygen-glucose deprivation condition.
The retinal ganglion cell line RGC-5 (rat ganglion cell) was cultured in DMEM (Dulbecco's modified Eagle's medium) supplemented with 10% FBS (fetal bovine serum) and 1% penicillin/streptomycin. The cells were distributed in a 96-well plate at the density of 8×10^3 cells/well, followed by culture in a 37° C., CO2 incubator for 12 hours. The cells were washed with PBS once and the medium was replaced with glucose free DMEM. The cells were treated with either DMSO (0.1%) alone (control) or with the compounds of examples (20 μM) shown in Table 3, followed by culture in an anaerobic incubator (10% H2, 5% CO2, 85% N2, 37° C., chamber (ThermoForma, USA)) for 15 hours to induce cell death.
The level of cell death was measured by LDH (lactate dehydrogenase, Roche) assay. The LDH assay is a method for measuring the activity of LDH released from the damaged cells into the culture medium. NAD^+ was reduced to NADH and H^+ by LDH, and the bond of tetrazolium salt INT ring was cleaved by diaphorase to form formazan. Absorbance of the formazan was measured at 490 nm by using Victor 3 (PerkinElmer). The absorbance reflects the amount of dead cells.
The level of the control LDH under oxygen-glucose deprivation condition was regarded as 100%, and the level of LDH in the cell group cultured in normal medium (10% FBS, DMEM) for the same time was regarded as 0%. Based on that, the levels of LDH of the cell groups treated with the compounds of the invention under oxygen-glucose deprivation condition were converted into the relative ratio of cell death. The compounds of examples of the invention were treated to wells, each compound for three wells, and then each experiment was performed in triplicate.

Sequence of RIPK1 (receptor-interacting serine/threonine-protein kinase 1) (Q13546 whole entry, species assumed): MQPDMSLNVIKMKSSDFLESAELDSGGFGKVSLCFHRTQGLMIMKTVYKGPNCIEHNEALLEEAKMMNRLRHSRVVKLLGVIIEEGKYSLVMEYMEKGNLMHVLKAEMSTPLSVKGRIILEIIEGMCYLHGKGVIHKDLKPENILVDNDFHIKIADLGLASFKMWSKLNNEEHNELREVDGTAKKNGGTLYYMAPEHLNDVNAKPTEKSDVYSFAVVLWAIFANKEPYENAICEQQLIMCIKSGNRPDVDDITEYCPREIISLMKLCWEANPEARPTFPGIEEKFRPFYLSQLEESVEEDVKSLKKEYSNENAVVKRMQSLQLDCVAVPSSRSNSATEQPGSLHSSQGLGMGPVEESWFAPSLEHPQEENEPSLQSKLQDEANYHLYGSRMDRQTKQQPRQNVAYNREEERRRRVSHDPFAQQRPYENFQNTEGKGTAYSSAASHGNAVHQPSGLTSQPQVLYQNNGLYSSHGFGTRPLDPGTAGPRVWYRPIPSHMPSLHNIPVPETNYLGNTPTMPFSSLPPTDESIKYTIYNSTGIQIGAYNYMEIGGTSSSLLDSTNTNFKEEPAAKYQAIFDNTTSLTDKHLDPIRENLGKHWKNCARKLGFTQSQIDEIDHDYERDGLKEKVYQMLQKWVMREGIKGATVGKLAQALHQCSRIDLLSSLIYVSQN

By inhibition is commonly meant the percentage by which the read-out fell short of the control. Lower therefore signals a response near the control. As to `O=C(c1cc2c(-c3ccc(O)cc3)cccc2s1)N1CCOCC1` [Example 44, (4-(4-hydroxyphenyl)benzo[b]thiophene-2-yl)(morpholino)methanone], in assay [1], the inhibition at 100 µM was no less than 50% and the activity at 100 µM was 21 ± 17%. For the same compound, in assay [2], the “Death of retinal nerve cell (%)” value was 81.1 ± 6.5%.

In assay [1], `O=C(c1cc2c(Nc3ccc(F)cc3)cccc2s1)N1CCOCC1` [Example 68, (4-(4-fluorophenylamino)benzo[b]thiophene-2-yl)(morpholino)methanone] gave an inhibition at 100 µM of no less than 50% and an activity at 100 µM of 33.5 ± 12%. Further, the “Death of retinal nerve cell (%)” value in assay [2] is reported as 58.3 ± 11.9%.

For `COc1ccc(-c2cccc3sc(C(=O)N4CCOCC4)cc23)cn1` [Example 55, (4-(6-methoxypyridine-3-yl)benzo[b]thiophene-2-yl)(morpholino)methanone], in assay [1], the inhibition at 100 µM is no less than 50% and the activity at 100 µM came out at 43 ± 7.1%. The “Death of retinal nerve cell (%)” value in assay [2] was 47.2 ± 12.4%.

`O=C(c1cc2c(Cc3cccc(F)c3)cccc2s1)N1CCOCC1` [Example 56, (4-(3-fluorobenzyl)benzo[b]thiophene-2-yl)(morpholino)methanone] came in with an activity at 100 µM in assay [1] of 54.5 ± 37.5%. Moreover, the “Death of retinal nerve cell (%)” value in assay [2] is given as 81.0 ± 16.1%.

Regarding `Cc1ccc(-c2cccc3sc(C(=O)N4CCOCC4)cc23)cc1` [Example 32, morpholino(4-p-tolylbenzo[b]thiophene-2-yl)methanone], the activity at 100 µM in assay [1] is 6.5 ± 4.9%. Besides, the “Death of retinal nerve cell (%)” value in assay [2] is 64.6 ± 7.4%.

For the compound `O=C(c1cc2c(Oc3ccc(F)cc3)cccc2s1)N1CCOCC1` [Example 59, (4-(4-fluorophenoxy)benzo[b]thiophene-2-yl)(morpholino)methanone], in assay [1], the inhibition at 100 µM was no less than 50% and the activity at 100 µM turned out to be 21 ± 7.1%. The “Death of retinal nerve cell (%)” value in assay [2] is reported as 59.5 ± 14.7%.

In assay [1], `CN(c1ccc(F)cc1)c1cccc2sc(C(=O)N3CCOCC3)cc12` [Example 69, (4-((4-fluorophenyl)(methyl)amino)benzo[b]thiophene-2-yl)(morpholino)methanone] returned an inhibition at 100 µM of no less than 50% and an activity at 100 µM of 22.5 ± 16.3%. Further, in assay [2], the “Death of retinal nerve cell (%)” value is reported as 69.4 ± 10.9%.

As for `COc1ccc(-c2cccc3sc(C(=O)N4CCOCC4)cc23)cc1` [Example 34, (4-(4-methoxyphenyl)benzo[b]thiophene-2-yl)(morpholino)methanone], the activity at 100 µM in assay [1] came out at 16.5 ± 7.8%. Besides, in assay [2], the “Death of retinal nerve cell (%)” value is listed as 55.4 ± 18.1%.

For `O=C(O)c1ccc(-c2cccc3sc(C(=O)N4CCOCC4)cc23)cc1` [Example 33, 4-(2-(morpholine-4-carbonyl)benzo[b]thiophene-4-yl)benzoic acid], the activity at 100 µM in assay [1] is 90 ± 2.8%. Moreover, the “Death of retinal nerve cell (%)” value in assay [2] was 51.5 ± 7.0%.

`NC(=O)c1ccc(-c2cccc3sc(C(=O)N4CCOCC4)cc23)cc1` [Example 43, 4-(2-(morpholine-4-carbonyl)benzo[b]thiophene-4-yl)benzamide] returned an activity at 100 µM in assay [1] of 58.5 ± 17.7%. Moreover, in assay [2], the “Death of retinal nerve cell (%)” value was found to be 62.3 ± 1.7%.

On to `O=C(c1cc2cc(O)ccc2[nH]1)N1CCOCC1` [Example 11, (5-hydroxy-1H-indole-2-yl)(morpholino)methanone], for which the activity at 100 µM in assay [1] amounted to 70.7 ± 28.5%. Further, in assay [2], the “Death of retinal nerve cell (%)” value is 41.1 ± 3.1%.

Regarding `O=C(c1cc2c(-c3ccc(F)cc3)cccc2s1)N1CCC(O)CC1` [Example 48, (4-(4-fluorophenyl)benzo[b]thiophene-2-yl)(4-hydroxypiperidine-1-yl)methanone], in assay [1], the inhibition at 100 µM was no less than 50% and the activity at 100 µM stood at 25.5 ± 0.7%. Moreover, the “Death of retinal nerve cell (%)” value in assay [2] is given as 47.7 ± 13.2%.

With `Cl.NC1CCN(C(=O)c2cc3c(-c4ccc(F)cc4)cccc3s2)CC1` [Example 37, (4-aminopiperidine-1-yl) (4-(4-fluorophenyl)benzo[b]thiophene-2-yl)methanone hydrochloride], in assay [1], the inhibition at 100 µM was no less than 50% and the activity at 100 µM stood at 25.5 ± 14.8%. Besides, the “Death of retinal nerve cell (%)” value in assay [2] is 87.0 ± 13.2%.
